Results published in US9132086B2, “Compositions for and methods of controlling olfactory responses to odorants” (Auburn University, priority 2006, dated 2015).

What was measured:
[1] = tested on: olfactory receptor neurons; assay: Whole-cell patch-clamp recording of single olfactory neurons; type: cell-based, rat; settings: FIG. 7
Excerpt: FIG. 6 illustrates electrophysiological recordings from a rat olfactory epithelium and a single olfactory neuron where the stimulus was a 0.5-s pulse of air or an odorant mixture. The odorant concentration was constant for all traces. […] Vapor of odorants were collected above the odorant solutions (in water) of concentrations shown. […] The stimulus was a 0.5 second pulse of odorant/zinc particle mixture. Downward direction indicates inward current.
FIG. 7 illustrates results from EGTA experiments and Zn^+2 ions experiments. […] It is widely known that EGTA binds multivalent metals. When Zn metal nanoparticles are bound by EGTA, the number of particles participating in olfactory signal transduction is reduced, and the odorant response is decreased. […] When the patch electrode is filled with a solution containing 500 pM EGTA, the odorant-evoked current changes markedly. Few minutes after beginning the perfusion, a progressive […] in the amplitude of the odorant triggered inward currents is noted.

rat olfactory epithelium = assay: EOG recording of rat olfactory epithelium, odorant puffs; type: cell-based; settings: FIG. 7 chart 720; external perfusion of ZnCl2 solutions, same range of concentrations as nanoparticles (10^−9-10^−15 M)
Excerpt: The averaged activity of the receptor neuron to an odor can be measured by an electroolfactogram (EOG). In this process, fragments of olfactory epithelaia, either cultured or dissected from natural sources (e.g., mice and dogs), are placed in an EOG recording chamber with a buffer solution. The epithelial cilia are exposed. Electrodes are connected to the tissues through a patch-clamp amplifier to detect electrical activity of the olfactory epithelia. In general air puff or plums of an odorant mixture are applied over the olfactory epithelia through a small pipet or capillary, before and after being treated with the metal composition, described in detail below. The amplitude of the electrical signal to the amount of the odorant is plotted over time after the electrical signal is amplified and filtered.
FIG. 3C is a graph 370 showing amplitude plots 371, 373, 375 and 377 of Electroolfactogram recordings. In this case rat olfactory tissue was placed in an EOG recording chamber with a buffer solution and connected to electrodes through an amplifier. Air puffs or plumes of an odorant mixture are applied over the rat olfactory tissue and the electrical response was measured and the normalized peak amplitudes were plotted over time over time.
FIG. 5 illustrates EOG traces from rat olfactory epithelium. Responses were induced by air odorants and a mixture of odorants and zinc metal particles. […]

| SMILES | effect on odorant response measured by patch-clamp ([1]; 500 pM perfused inside olfactory neurons) | dose dependence of the effect on odorant response ([1]; perfused inside olfactory neurons) | odorant response by olfactory receptor neurons (rat olfactory epithelium) |
| --- | --- | --- | --- |
| O=C(O)CN(CCOCCOCCN(CC(=O)O)CC(=O)O)CC(=O)O [EGTA, ethylene glycol tetraacetic acid] | clearly inhibit odorant response | dose dependent | – |
| [Zn+2] [Zn^+2 ions, ZnCl2] | – | – | reduced |
